Active and inactive are the calls of the source.
Columns and labels:
[1] = target: Eukaryotic translation initiation factor 4E (Mus musculus, UniProt P63073); assay: eIF4E–eIF4G protein interaction inhibitors, dose response, biochemical, TR-FRET (AID 855); format: functional;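 further: potency for disrupting eIF4E binding to eIF4GI seen as loss of FRET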
[2] = target: T1, Protein Tat (Human immunodeficiency virus type 1 group M subtype B (isolate HXB2)(HIV-1), UniProt P04608); format: functional;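 further: tat binding to TAR RNA read out by fluorescence polarization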
T1 sequence (P04608 whole entry): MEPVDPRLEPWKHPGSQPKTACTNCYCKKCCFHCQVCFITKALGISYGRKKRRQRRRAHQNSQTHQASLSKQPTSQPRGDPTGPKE

[3] = target: Mu-type opioid receptor (Homo sapiens, UniProt P35372); format: functional, cell-based;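 further: U2OS cells with beta-arrestin recruitment to OPRM1 by beta-gal complementation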
[4] = target: T2, Rac GTPase-activating protein 1 (Homo sapiens, UniProt Q9H0H5); assay: MgcRacGAP GTPase-activating activity inhibitors, confirmation, biochemical, ADP Hunter fluorescence, primary and confirmatory (AID 624330); format: functional
T2 sequence (Q9H0H5 whole entry): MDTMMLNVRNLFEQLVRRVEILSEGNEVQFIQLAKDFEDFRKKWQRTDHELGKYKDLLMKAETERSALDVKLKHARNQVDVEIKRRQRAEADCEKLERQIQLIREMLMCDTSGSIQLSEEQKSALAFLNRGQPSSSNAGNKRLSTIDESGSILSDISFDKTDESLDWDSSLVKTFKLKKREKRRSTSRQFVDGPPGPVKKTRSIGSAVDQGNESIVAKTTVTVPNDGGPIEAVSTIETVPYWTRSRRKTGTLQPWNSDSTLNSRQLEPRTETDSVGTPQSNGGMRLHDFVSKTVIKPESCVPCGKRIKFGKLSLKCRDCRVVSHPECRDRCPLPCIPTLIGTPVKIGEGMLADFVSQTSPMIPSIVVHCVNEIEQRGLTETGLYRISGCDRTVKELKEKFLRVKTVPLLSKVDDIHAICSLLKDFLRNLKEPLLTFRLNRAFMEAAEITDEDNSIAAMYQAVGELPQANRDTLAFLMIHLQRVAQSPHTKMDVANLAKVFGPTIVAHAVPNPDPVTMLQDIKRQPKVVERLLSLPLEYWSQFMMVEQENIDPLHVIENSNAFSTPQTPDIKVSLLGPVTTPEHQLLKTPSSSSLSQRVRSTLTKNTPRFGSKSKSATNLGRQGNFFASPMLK

[5] = target: 5-hydroxytryptamine receptor 2A (Mus musculus, UniProt P35363); format: functional, cell-based;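 further: CHO-K1 cells with tagged receptor and beta-arrestin; agonist potency measured as compound-induced activation of the receptor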
[6] = target: T3, Bcl-2-like protein 10 (Homo sapiens, UniProt Q9HD36); assay: displacers of TR3 peptide from Bcl-B, primary screen, selectivity assay for Bfl-1 inhibitor project, biochemical, fluorescence polarization, FITC-TR3 peptide (AID 748);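 further: fluorescence polarization from a fluorescein-labelled TR3 peptide binding purified Bcl-B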
T3 sequence (Q9HD36 whole entry): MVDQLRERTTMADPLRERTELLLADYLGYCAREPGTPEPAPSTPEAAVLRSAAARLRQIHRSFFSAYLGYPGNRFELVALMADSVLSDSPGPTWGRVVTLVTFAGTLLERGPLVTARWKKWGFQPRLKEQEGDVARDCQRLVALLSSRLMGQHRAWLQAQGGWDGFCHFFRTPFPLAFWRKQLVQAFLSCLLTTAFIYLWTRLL

[7] = target: T4, Histone-lysine N-methyltransferase NSD2 (Homo sapiens, UniProt O96028); format: biochemical
T4 sequence (O96028 whole entry): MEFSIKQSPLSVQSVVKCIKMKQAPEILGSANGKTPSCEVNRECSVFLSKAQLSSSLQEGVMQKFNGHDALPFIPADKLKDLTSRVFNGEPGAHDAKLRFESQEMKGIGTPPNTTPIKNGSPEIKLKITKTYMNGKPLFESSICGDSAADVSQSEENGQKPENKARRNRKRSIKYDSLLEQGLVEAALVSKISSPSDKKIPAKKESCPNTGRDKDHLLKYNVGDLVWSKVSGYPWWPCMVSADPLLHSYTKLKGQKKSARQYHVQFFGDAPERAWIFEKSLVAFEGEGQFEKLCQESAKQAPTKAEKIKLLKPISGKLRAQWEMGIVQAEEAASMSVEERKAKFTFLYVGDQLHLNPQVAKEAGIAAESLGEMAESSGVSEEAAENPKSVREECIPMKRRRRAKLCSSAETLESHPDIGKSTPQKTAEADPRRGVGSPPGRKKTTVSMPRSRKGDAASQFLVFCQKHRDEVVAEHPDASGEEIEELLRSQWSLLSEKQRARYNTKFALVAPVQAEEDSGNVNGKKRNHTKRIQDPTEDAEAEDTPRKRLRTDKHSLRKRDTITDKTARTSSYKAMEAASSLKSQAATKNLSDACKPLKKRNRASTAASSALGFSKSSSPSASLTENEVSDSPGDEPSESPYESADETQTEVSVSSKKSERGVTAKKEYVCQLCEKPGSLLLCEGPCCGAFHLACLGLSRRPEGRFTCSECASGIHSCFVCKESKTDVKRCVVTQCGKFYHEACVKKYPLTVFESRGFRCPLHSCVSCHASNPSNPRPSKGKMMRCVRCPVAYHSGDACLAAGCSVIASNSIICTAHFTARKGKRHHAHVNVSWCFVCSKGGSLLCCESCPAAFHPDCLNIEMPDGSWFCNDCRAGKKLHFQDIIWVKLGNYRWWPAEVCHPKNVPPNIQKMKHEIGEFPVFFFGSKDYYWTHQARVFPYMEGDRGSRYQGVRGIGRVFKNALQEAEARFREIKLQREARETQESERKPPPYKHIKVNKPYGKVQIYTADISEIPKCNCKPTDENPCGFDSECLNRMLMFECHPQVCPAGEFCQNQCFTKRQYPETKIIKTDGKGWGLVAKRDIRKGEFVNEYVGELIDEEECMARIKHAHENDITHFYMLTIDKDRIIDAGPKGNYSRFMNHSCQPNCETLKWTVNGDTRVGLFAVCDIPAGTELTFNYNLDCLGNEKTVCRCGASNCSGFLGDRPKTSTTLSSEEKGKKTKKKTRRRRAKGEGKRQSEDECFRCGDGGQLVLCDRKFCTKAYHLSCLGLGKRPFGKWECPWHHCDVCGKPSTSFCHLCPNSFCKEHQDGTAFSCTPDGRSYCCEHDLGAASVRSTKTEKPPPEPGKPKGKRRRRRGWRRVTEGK

[8] = A549 cell cytotoxicity, dose response, cytotoxicity control, plate reader, cherry-pick, antagonist series (AID 743412); format: functional, cell-based
[9] = MC4R antagonists, dose response, counter-screen for LGR2 antagonist project, cell-based, plate reader, cherry pick (AID 743444); format: functional;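 further: transfected HEK 293 cells stimulated with alpha-MSH peptide; potency of inhibitors of the alpha-MSH evoked signal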
[10] = target: Luciferin 4-monooxygenase (Photinus pyralis, UniProt P08659); assay: firefly luciferase enzyme inhibitors, dose response, biochemical, luminescence (AID 1891)
[11] = Luminescence Cell-Based Dose Confirmation HTS to Identify Inhibitors of Platelet Dense Granule Release. [Related pubchem assays: 1663 (Primary HTS), 1678 (Summary of Project)]; format: functional
[12] = HEK293 cell cytotoxicity, dose response, cytotoxicity control, plate reader, cherry-picked samples (AID 743446); format: functional, cell-based
[13] = HepG2 cell cytotoxicity, dose response, cytotoxicity control, plate reader, cherry-pick, antagonist series (AID 743416); format: functional, cell-based
[14] = LGR2 antagonists, dose response, cell-based, HEK293, CRE-luciferase reporter, cherry pick, set 2 (AID 743343); format: functional;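 further: transfected cells were stimulated with diluted bursicon conditioned medium after compound addition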
[15] = tested on: HEK293; assay: inhibitors of LMP1-driven NF-kB reporter, dose response, cell-based, HEK293, luciferase, cherry-pick (AID 588343); format: functional; settings: Homo sapiens
[16] = human group III sPLA2 inhibitors, dose response, biochemical, QFRET, IC50 (AID 743457);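 further: green fluorescence rise as the enzyme cleaves BODIPY PC-A2 in liposomes; potency for inhibition of the enzyme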
[17] = Luminescence-based cell-based high throughput dose response assay to identify activators of the DAF-12 from the parasite S. stercoralis (ssDAF-12).; format: functional
[18] = target: T5, Oxysterols receptor LXR-beta (Homo sapiens, UniProt P55055); assay: LXR agonists, Gal4 luciferase reporter, dose response, counter-screen for ssDAF-12 agonist project, cell-based, luminescence, HEK293, S. stercoralis campaign (AID 720737); format: functional; settings: read-out: IC50 (the source's name)
T5 sequence (P55055 whole entry): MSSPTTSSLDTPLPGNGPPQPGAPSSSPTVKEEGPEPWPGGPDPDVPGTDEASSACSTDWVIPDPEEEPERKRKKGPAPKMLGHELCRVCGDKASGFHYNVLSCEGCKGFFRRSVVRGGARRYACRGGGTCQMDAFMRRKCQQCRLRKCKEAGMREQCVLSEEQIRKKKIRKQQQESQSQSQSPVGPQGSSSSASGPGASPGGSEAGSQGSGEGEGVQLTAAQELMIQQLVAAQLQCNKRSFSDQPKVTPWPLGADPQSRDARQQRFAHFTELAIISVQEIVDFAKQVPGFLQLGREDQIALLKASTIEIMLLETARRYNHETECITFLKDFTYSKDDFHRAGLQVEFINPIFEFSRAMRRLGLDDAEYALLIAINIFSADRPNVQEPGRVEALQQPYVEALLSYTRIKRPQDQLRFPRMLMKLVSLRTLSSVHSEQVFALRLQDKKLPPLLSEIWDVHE

[19] = cells
[20] = target: T5, Oxysterols receptor LXR-beta; format: functional, cell-based
[21] = target: Prothrombin (Homo sapiens, UniProt P00734); assay: Thrombin 1536 HTS Dose Response Confirmation. [Related pubchem assays: 1046 (Thrombin 1536 HTS; hits were confirmed in this assay)]; format: functional

Eukaryotic translation initiation factor 4E, sequence (P63073 whole entry): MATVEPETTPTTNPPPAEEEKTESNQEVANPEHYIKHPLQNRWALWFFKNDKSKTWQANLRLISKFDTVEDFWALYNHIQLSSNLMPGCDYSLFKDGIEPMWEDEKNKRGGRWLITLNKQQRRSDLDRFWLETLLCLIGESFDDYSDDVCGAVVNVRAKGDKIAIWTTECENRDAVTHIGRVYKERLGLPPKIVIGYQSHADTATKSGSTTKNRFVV
Mu-type opioid receptor, sequence (P35372 whole entry): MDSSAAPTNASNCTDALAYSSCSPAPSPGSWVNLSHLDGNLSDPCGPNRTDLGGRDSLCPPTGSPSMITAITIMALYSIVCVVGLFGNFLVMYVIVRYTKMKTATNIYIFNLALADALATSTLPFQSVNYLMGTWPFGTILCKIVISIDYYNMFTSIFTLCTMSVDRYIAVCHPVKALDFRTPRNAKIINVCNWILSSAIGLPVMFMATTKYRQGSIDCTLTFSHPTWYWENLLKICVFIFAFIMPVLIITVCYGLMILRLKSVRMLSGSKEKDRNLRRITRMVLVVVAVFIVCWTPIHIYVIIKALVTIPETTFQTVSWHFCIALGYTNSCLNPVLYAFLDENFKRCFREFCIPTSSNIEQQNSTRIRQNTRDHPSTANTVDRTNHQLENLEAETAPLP
5-hydroxytryptamine receptor 2A, sequence (P35363 whole entry): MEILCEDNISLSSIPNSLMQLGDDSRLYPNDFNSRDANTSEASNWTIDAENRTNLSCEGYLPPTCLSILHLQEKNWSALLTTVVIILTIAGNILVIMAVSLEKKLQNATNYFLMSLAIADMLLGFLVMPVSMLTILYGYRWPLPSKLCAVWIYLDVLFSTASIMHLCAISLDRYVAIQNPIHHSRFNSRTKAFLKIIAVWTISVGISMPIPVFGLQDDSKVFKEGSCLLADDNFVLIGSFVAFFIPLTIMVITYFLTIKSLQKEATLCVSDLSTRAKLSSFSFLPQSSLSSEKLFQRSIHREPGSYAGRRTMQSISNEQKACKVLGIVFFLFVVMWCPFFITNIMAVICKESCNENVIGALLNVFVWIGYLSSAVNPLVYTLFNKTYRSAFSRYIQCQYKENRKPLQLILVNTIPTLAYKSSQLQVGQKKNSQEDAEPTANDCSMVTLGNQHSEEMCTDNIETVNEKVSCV
Luciferin 4-monooxygenase, sequence (P08659 whole entry): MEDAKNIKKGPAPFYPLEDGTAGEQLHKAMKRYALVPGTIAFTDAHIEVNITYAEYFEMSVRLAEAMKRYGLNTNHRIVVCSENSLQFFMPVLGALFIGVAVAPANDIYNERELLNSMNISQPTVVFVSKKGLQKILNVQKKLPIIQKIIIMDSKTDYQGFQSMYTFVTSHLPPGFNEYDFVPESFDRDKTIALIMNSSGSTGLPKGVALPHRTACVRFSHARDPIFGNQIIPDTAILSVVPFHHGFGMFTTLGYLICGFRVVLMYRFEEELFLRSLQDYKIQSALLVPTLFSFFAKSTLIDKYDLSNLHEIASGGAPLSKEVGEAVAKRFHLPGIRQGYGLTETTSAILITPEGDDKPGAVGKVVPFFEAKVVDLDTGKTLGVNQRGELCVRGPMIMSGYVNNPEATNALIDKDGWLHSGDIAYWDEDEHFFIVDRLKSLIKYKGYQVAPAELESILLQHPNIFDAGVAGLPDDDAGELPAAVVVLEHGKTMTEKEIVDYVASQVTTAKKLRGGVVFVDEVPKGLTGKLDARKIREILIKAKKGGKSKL

Compound: O=c1cc(CCl)nc2sc3ccccc3n12
- IC50 [1]: 50 µM (inactive)

Compound: Cc1cc(C)c(S(=O)(=O)NCC2CCC(C(=O)N3CCC4(CC3)OCCO4)CC2)c(C)c1 (centres undefined)
- IC50 [2]: > 100 µM (active)

Compound: Cc1ccc(S(=O)(=O)N2CCOCC2)cc1NC(=O)CNCc1cccnc1
- EC50 [3]: 92.5 µM (inactive)
- IC50 [4]: 108 µM (active)
- EC50 [5]: 6.05 µM (active)

Compound: Cc1cc[n+]2c3c(cccc13)CCC2
- IC50 [6]: 63.2 µM (inactive)

Compound: CCN(CC)CCCNc1cc(C(F)(F)F)c(C#N)c2nc3ccccc3n12
- AC50 [7]: > 20 µM (inactive)

Compound: CCOc1ccc(C(=O)Nc2cc(C)ccn2)cc1
- AC50 [8]: 21 µM (active)
- AC50 [9]: 2.97 µM (active)
- EC50 [10]: 1.19 µM (active)
- EC50 [11]: 2.45 µM (active)
- AC50 [12]: 22.1 µM (active)
- AC50 [13]: 24.6 µM (active)
- AC50 [14]: 4.55 µM (active)
- AC50 [15]: 2.17 µM (active)

Compound: COc1ccc(CCNC(=O)/C=C/c2ccco2)cc1
- IC50 [2]: > 100 µM (active)

Compound: Cc1cccc(NC(S)=NNC(=O)c2ccc3c(c2)OCO3)c1
- IC50 [16]: > 122 µM (inactive)

Compound: COc1cc(-c2nc3ccccc3c(=O)n2N)cc(OC)c1OC
- IC50 [17]: > 67.5 µM (inactive)
- EC50 [18]: > 67.5 µM (inactive)

Compound: COc1ccc(-c2cn3ccc4ccccc4c3n2)cc1
- EC50 [19]: > 67.5 µM (inactive)
- IC50 [17]: > 67.5 µM (inactive)
- EC50 [20]: > 67.5 µM (inactive)
- EC50 [18]: > 67.5 µM (inactive)

Compound: COc1cccc(-c2cc(C(=O)Nc3c(C)nn(Cc4ccccc4)c3C)no2)c1
- IC50 [21]: > 50 µM (not active)
